The term Kd denotes the equilibrium constant for the complex coming apart. Low readings indicate a tighter complex, high ones a looser complex.

Holding throughout (assay type): binding
Test [1] has as its target T1, FimZ (Salmonella enterica, UniProt P26319, T138A).
T1 construct: Flag-FimZ-His mutant
T1 sequence (P26319 1-210 T138A): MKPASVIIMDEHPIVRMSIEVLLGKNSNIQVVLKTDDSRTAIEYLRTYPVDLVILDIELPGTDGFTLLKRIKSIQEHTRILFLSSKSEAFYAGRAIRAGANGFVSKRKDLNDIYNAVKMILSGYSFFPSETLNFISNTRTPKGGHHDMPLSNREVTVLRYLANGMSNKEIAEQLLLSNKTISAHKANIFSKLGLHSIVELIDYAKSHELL
Briefly: SPR (Biacore X100, His-antibody capture on CM5 chip). For orientation: In SPR one partner is held on a chip, and binding of the other changes the refractive index at the surface.

For test [2], the target named is T2, FimZ (Salmonella enterica, UniProt P26319).
T2 construct: Flag-FimZ-His, whole fimZ fragment of SL1344 in pET-28a
Kind of test: SPR (Biacore X100, His-antibody capture on CM5 chip); EMSA support. (In EMSA bound probe runs differently from free probe, usually more slowly.)

In test [3] the target is T3, FimZ (Salmonella enterica, UniProt P26319, I135A).
T3 construct: Flag-FimZ-His mutant
T3 sequence (P26319 1-210 I135A): T1 sequence (P26319 1-210 T138A)
Briefly: SPR (Biacore X100, His-antibody capture on CM5 chip).

With `O=C1C[C@@H](c2ccc(O)cc2)Oc2cc(O)cc(O)c21` [Nar, naringenin], the Kd turned out to be 412 µM at FimZ [1], 33.9 µM on FimZ [2] and 152 µM on FimZ [3].
